From ChEMBL document CHEMBL3091365, “Optimization of O3-acyl kojic acid derivatives as potent and selective human neutrophil elastase inhibitors” (J Med Chem, 2013)

What was measured:
[1] = Stability of the compound in phosphate buffer at pH 7.4 at 100 uM by HPLC analysis; assay type: physicochemical; conditions: pH 7.4, 100 µM
Kallikrein-1 = Kallikrein-1 (Homo sapiens, UniProt P06870); assay: Inhibition of human kallikrein using H-Pro-Phe-Arg-AMC acetate salt as substrate measured for 30 mins by spectrophotometry
Cathepsin G = molecular target: T1, Cathepsin G (Homo sapiens, UniProt P08311); assay: Inhibition of human cathepsin G using Suc-Ala-Ala-Pro-Phe-p-nitroanilide as substrate incubated for 30 mins prior to substrate addition measured for 30 mins by spectrophotometry
T1 sequence (P08311 whole entry): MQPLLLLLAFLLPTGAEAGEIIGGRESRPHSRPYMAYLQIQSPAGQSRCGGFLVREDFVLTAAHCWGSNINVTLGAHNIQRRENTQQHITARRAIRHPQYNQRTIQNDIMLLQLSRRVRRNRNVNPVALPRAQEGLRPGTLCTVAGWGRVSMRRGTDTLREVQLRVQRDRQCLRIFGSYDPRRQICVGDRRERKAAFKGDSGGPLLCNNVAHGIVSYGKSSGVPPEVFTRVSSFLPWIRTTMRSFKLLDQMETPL

[2] = molecular target: Urokinase-type plasminogen activator (Homo sapiens, UniProt P00749); assay: Inhibition of human urokinase using Z-Gly-Gly-Arg-AMC.HCl as substrate measured for 30 mins by spectrophotometry
Prothrombin = Prothrombin (Homo sapiens, UniProt P00734); assay: Inhibition of human thrombin using Z-Gly-Gly-Arg-AMC.HCl as substrate measured for 30 mins by spectrophotometry
Neutrophil elastase = molecular target: T2, Neutrophil elastase (Homo sapiens, UniProt P08246); assay: Inhibition of human neutrophil elastase using MeO-Suc-Ala-Ala-Pro-Val-AMC as substrate incubated for 30 mins prior to substrate addition measured for 30 mins by fluorescence assay
T2 sequence (P08246 whole entry): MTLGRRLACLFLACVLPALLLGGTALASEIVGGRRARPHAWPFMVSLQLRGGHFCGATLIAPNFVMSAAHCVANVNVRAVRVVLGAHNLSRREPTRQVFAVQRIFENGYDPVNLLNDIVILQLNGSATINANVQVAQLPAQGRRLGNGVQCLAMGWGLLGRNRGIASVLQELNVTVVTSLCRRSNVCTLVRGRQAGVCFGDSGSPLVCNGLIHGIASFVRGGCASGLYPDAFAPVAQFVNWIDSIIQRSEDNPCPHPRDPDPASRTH

Myeloblastin = molecular target: T3, Myeloblastin (Homo sapiens, UniProt P24158); assay: Inhibition of human proteinase 3 using N-MeOSuc-Ala-Ala-Pro-Val-p-nitroanilide as substrate measured for 30 mins by spectrophotometry
T3 sequence (P24158 whole entry): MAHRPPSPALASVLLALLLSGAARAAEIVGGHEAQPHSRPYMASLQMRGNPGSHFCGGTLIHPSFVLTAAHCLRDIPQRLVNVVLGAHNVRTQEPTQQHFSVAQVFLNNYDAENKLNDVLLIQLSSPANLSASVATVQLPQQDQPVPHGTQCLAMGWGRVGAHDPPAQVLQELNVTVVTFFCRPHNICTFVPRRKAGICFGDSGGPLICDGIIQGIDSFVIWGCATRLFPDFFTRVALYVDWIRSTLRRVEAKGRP

[3] = Inhibition of human chymotrypsin using Suc-Ala-Ala-Pro-Phe-7-amino-4-methylcoumarin as substrate measured for 30 mins by spectrophotometry
Trypsin = Trypsin (Homo sapiens, UniProt P07477+P07478+P35030); assay: Inhibition of human trypsin using Z-Gly-Gly-Arg-AMC.HCl as substrate measured for 30 mins by spectrophotometry; assay type: protein assay
Pancreatic elastase = Pancreatic elastase (Sus scrofa, UniProt P08419+P00772); assay: Inhibition of pig pancreatic elastase using MeO-Suc-Ala-Ala-Pro-Val-AMC as substrate incubated for 30 mins prior to substrate addition measured for 30 mins by fluorescence assay; assay type: protein assay
[4] = Half life in Sprague-Dawley rat liver microsomes by HPLC analysis; assay type: ADME
HEK-293T = assay: Cytotoxicity against human HEK293T cells after 24 hrs by MTT assay; assay type: cell-based
[5] = Half life in human plasma by HPLC analysis; assay type: ADME, cell-free
NIH3T3 = assay: cells; conditions: Mus musculus, NIH3T3, 24 h
Description: Cytotoxicity against mouse NIH/3T3 cells after 24 hrs by MTT assay

Plasma = assay: Metabolic stability in human plasma by HPLC analysis; assay type: ADME, cell-free

Kallikrein-1, sequence (P06870 whole entry): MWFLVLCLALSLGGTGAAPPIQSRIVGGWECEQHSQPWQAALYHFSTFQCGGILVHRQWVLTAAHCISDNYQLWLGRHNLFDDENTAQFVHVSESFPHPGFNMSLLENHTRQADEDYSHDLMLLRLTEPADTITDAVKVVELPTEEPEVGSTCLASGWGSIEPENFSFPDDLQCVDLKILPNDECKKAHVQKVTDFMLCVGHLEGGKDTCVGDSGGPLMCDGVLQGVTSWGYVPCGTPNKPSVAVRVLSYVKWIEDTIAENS

| Stability [1] | IC50 (Kallikrein-1) | IC50 (Cathepsin G) | IC50 [2] | IC50 (Prothrombin) | IC50 (Neutrophil elastase) | IC50 (Myeloblastin) | IC50 [3] | IC50 (Trypsin) | IC50 (Pancreatic elastase) | half-life [4] | half-life [5] | Stability (Plasma) | SMILES | IC50 (HEK-293T) | IC50 (NIH3T3) |
| --- | --- | --- | --- | --- | --- | --- | --- | --- | --- | --- | --- | --- | --- | --- | --- |
| – | > 50 µM | 19 µM | > 50 µM | 8.4 µM | – | – | – | – | – | – | – | – | CC(C)(C)C(=O)Oc1cn(-c2ccccc2)c(CSc2nc3cc(C(=O)O)ccc3o2)cc1=O | – | – |
| Stable | > 50 µM | > 100 µM | > 50 µM | > 50 µM | – | – | – | – | – | – | – | – | CC(C)(C)C(=O)Oc1coc(CSc2nc3cc(C(=O)O)ccc3o2)cc1=O | – | – |
| Stable | > 50 µM | > 100 µM | > 50 µM | > 50 µM | 0.11 µM | 5.9 µM | > 50 µM | > 50 µM | > 100 µM | < 1 min | 10.8 min | – | CC(C)(C)C(=O)Oc1coc(CSc2nc3ccccc3s2)cc1=O | > 100 µM | > 100 µM |

Further lines, the compound ahead of its results:

| SMILES | Stability [1] | IC50 (Kallikrein-1) | IC50 (Cathepsin G) | IC50 [2] | IC50 (Prothrombin) | IC50 (Neutrophil elastase) | IC50 (Myeloblastin) | IC50 [3] | IC50 (Trypsin) | IC50 (Pancreatic elastase) | half-life [4] | half-life [5] | Stability (Plasma) | IC50 (HEK-293T) | IC50 (NIH3T3) |
| --- | --- | --- | --- | --- | --- | --- | --- | --- | --- | --- | --- | --- | --- | --- | --- |
| O=C(Oc1coc(CSc2nnc(NC(=O)C3CC3)s2)cc1=O)c1cccc(F)c1 | Stable | – | – | – | – | – | – | – | – | – | – | – | – | – | – |
| O=C(Oc1cn(-c2ccccc2)c(CSc2nc3ccccc3s2)cc1=O)c1ccccc1 | – | – | – | – | – | 0.28 µM | – | – | – | – | – | – | – | – | – |
| CC(C)(C)C(=O)Oc1cn(-c2ccccc2)c(CSc2nc3ccccc3s2)cc1=O | – | – | – | – | – | 0.96 µM | – | – | – | – | – | – | – | – | – |
| CC(C)(C)C(=O)Oc1ccc(S(=O)(=O)Nc2ccccc2C(=O)NCC(=O)O)cc1 | Stable | > 2 µM | > 100 µM | > 2 µM | > 2 µM | – | > 100 µM | > 2 µM | > 2 µM | > 50 µM | 19.9 min | – | Stable | > 100 µM | > 100 µM |
